Data reported in PubChem BioAssay (NCI).
Values joined by “and” are separate entries in the source; they are usually repeats but may differ in a detail not shown here. Equal entries are not always repeated.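 Test compounds were applied to cells in 96-well plates for 48 hours at 5 doses. At the GI50, growth is halved. TGI is the concentration that stops growth completely.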

What follows are compounds tested on EKVX NSCLC (assay: inhibition of tumour cell growth, NCI panel, 48 h).

Point of comparison: `COC(=O)[C@@H](C)CNS(=O)(=O)N(c1cc(C(F)(F)F)cc(C(F)(F)F)c1)C1CCN(Cc2ccc(F)cc2)CC1`, GI50 12.2 µM. Against it:
- COC(=O)[C@H](C)NC(=O)NC(=O)NC(=O)CI — within 1.5-fold, 17.5 µM
- COc1cc2c(c(OC)c1OC)-c1ccc(OC)c(=O)cc1[C@@H](NC(=O)c1ccccc1)CC2 — higher, > 30 µM
- CN1C/C=C\CCOc2cccc(c2)-c2ccnc(n2)Nc2cccc(c2)C1 — 140-fold lower, 0.0872 µM
- COc1ccc(Cn2cc3c(c2-c2ccccc2)CC(C)(C)c2cnoc2-3)cc1 — 6.1-fold lower, 1.99 µM
- CN(C)C(=O)c1cc2cnc(Nc3ccc(-c4csc5c(=S)cc(N6CCOCC6)oc45)cc3)nc2n1C1CCCC1 — 15-fold lower, 0.792 µM
- COC1=CC(=O)c2nc(-c3cccc(C)n3)[nH]c2C1=O — 2.9-fold higher, 34.8 µM

Point of comparison: `COC(=O)[C@@H](C)CNS(=O)(=O)N(c1cc(C(F)(F)F)cc(C(F)(F)F)c1)C1CCN(Cc2ccc(F)cc2)CC1`, TGI 28.9 µM. Against it:
- C=C1C(=O)O[C@@H]2/C=C(\C)CC/C=C(/COC(C)=O)C[C@@H](OC(C)=O)[C@@H]12 — within 1.5-fold, 25.8 µM
- COC(=O)[C@H](C)NC(=O)NC(=O)NC(=O)CI — within 1.5-fold, 32 µM
- COc1cc2c(c(OC)c1OC)-c1ccc(OC)c(=O)cc1[C@@H](NC(=O)c1ccccc1)CC2 — higher, > 100 µM
- CN1C/C=C\CCOc2cccc(c2)-c2ccnc(n2)Nc2cccc(c2)C1 — 30-fold lower, 0.961 µM
- Oc1ccccc1C(Sc1nc2ccccc2s1)Sc1nc2ccccc2s1 — 2.7-fold higher, 77.9 µM
- COc1ccc(Cn2cc3c(c2-c2ccccc2)CC(C)(C)c2cnoc2-3)cc1 — higher, > 100 µM
- Oc1cccnc1CN1CCCCC1 — higher, > 100 µM
- CN(C)C(=O)c1cc2cnc(Nc3ccc(-c4csc5c(=S)cc(N6CCOCC6)oc45)cc3)nc2n1C1CCCC1 — not separable, > 13.7 µM
- COC1=CC(=O)c2nc(-c3cccc(C)n3)[nH]c2C1=O — higher, > 100 µM

What follows are compounds tested on NCI-H522 lung (assay: inhibition of tumour cell growth, NCI panel, 48 h).

Point of comparison: `COC1=CC(=O)c2nc(-c3cccc(C)n3)[nH]c2C1=O`, GI50 19100 nM. Against it:
- COC(=O)[C@@H](C)CNS(=O)(=O)N(c1cc(C(F)(F)F)cc(C(F)(F)F)c1)C1CCN(Cc2ccc(F)cc2)CC1 — within 1.5-fold, 14900 nM
- COC(=O)[C@H](C)NC(=O)NC(=O)NC(=O)CI — 9.7-fold lower, 1960 nM
- COc1cc2c(c(OC)c1OC)-c1ccc(OC)c(=O)cc1[C@@H](NC(=O)c1ccccc1)CC2 — 5400-fold lower, 3.57 nM
- CN1C/C=C\CCOc2cccc(c2)-c2ccnc(n2)Nc2cccc(c2)C1 — 270-fold lower, 70.8 nM
- COc1ccc(Cn2cc3c(c2-c2ccccc2)CC(C)(C)c2cnoc2-3)cc1 — 61-fold lower, 314 nM
- CN(C)C(=O)c1cc2cnc(Nc3ccc(-c4csc5c(=S)cc(N6CCOCC6)oc45)cc3)nc2n1C1CCCC1 — 15-fold lower, 1300 nM

Point of comparison: `COC(=O)[C@H](C)NC(=O)NC(=O)NC(=O)CI`, TGI 3.68 µM. Against it:
- COC(=O)[C@@H](C)CNS(=O)(=O)N(c1cc(C(F)(F)F)cc(C(F)(F)F)c1)C1CCN(Cc2ccc(F)cc2)CC1 — 10-fold higher, 37 µM
- C=C1C(=O)O[C@@H]2/C=C(\C)CC/C=C(/COC(C)=O)C[C@@H](OC(C)=O)[C@@H]12 — within 1.5-fold, 3.2 µM
- CN1C/C=C\CCOc2cccc(c2)-c2ccnc(n2)Nc2cccc(c2)C1 — 11-fold lower, 0.334 µM
- Oc1ccccc1C(Sc1nc2ccccc2s1)Sc1nc2ccccc2s1 — 15-fold higher, 56.8 µM
- COc1ccc(Cn2cc3c(c2-c2ccccc2)CC(C)(C)c2cnoc2-3)cc1 — 1.9-fold lower, 1.9 µM
- Oc1cccnc1CN1CCCCC1 — higher, > 100 µM
- CN(C)C(=O)c1cc2cnc(Nc3ccc(-c4csc5c(=S)cc(N6CCOCC6)oc45)cc3)nc2n1C1CCCC1 — higher, > 50 µM
- COC1=CC(=O)c2nc(-c3cccc(C)n3)[nH]c2C1=O — 16-fold higher, 59.1 µM

In the case of `COc1cc2c(c(OC)c1OC)-c1ccc(OC)c(=O)cc1[C@@H](NC(=O)c1ccccc1)CC2`, the TGI is reported as 0.0125 µM and 0.0205 µM.

These compounds were tested on SK-OV-3 ovarian (assay: inhibition of tumour cell growth, NCI panel, 48 h).

Point of comparison: `CN1C/C=C\CCOc2cccc(c2)-c2ccnc(n2)Nc2cccc(c2)C1`, GI50 0.209 µM. Against it:
- COC(=O)[C@@H](C)CNS(=O)(=O)N(c1cc(C(F)(F)F)cc(C(F)(F)F)c1)C1CCN(Cc2ccc(F)cc2)CC1 — 74-fold higher, 15.5 µM
- COC(=O)[C@H](C)NC(=O)NC(=O)NC(=O)CI — 91-fold higher, 19 µM
- COc1cc2c(c(OC)c1OC)-c1ccc(OC)c(=O)cc1[C@@H](NC(=O)c1ccccc1)CC2 — lower, < 0.003 µM
- COc1ccc(Cn2cc3c(c2-c2ccccc2)CC(C)(C)c2cnoc2-3)cc1 — 20-fold higher, 4.09 µM
- CN(C)C(=O)c1cc2cnc(Nc3ccc(-c4csc5c(=S)cc(N6CCOCC6)oc45)cc3)nc2n1C1CCCC1 — 11-fold higher, 2.28 µM
- COC1=CC(=O)c2nc(-c3cccc(C)n3)[nH]c2C1=O — 92-fold higher, 19.3 µM

Point of comparison: `COC(=O)[C@@H](C)CNS(=O)(=O)N(c1cc(C(F)(F)F)cc(C(F)(F)F)c1)C1CCN(Cc2ccc(F)cc2)CC1`, TGI 29 µM. Against it:
- C=C1C(=O)O[C@@H]2/C=C(\C)CC/C=C(/COC(C)=O)C[C@@H](OC(C)=O)[C@@H]12 — higher, > 100 µM
- COC(=O)[C@H](C)NC(=O)NC(=O)NC(=O)CI — within 1.5-fold, 39.1 µM
- CN1C/C=C\CCOc2cccc(c2)-c2ccnc(n2)Nc2cccc(c2)C1 — 13-fold lower, 2.16 µM
- Oc1ccccc1C(Sc1nc2ccccc2s1)Sc1nc2ccccc2s1 — higher, > 100 µM
- COc1ccc(Cn2cc3c(c2-c2ccccc2)CC(C)(C)c2cnoc2-3)cc1 — higher, > 100 µM
- Oc1cccnc1CN1CCCCC1 — higher, > 100 µM
- CN(C)C(=O)c1cc2cnc(Nc3ccc(-c4csc5c(=S)cc(N6CCOCC6)oc45)cc3)nc2n1C1CCCC1 — higher, > 50 µM
- COC1=CC(=O)c2nc(-c3cccc(C)n3)[nH]c2C1=O — within 1.5-fold, 35.7 µM

The compounds below were run on HCC-2998 colon (assay: inhibition of tumour cell growth, NCI panel, 48 h).

Point of comparison: `CN1C/C=C\CCOc2cccc(c2)-c2ccnc(n2)Nc2cccc(c2)C1`, GI50 80.2 nM. Against it:
- COC(=O)[C@@H](C)CNS(=O)(=O)N(c1cc(C(F)(F)F)cc(C(F)(F)F)c1)C1CCN(Cc2ccc(F)cc2)CC1 — 38-fold higher, 3010 nM
- COC(=O)[C@H](C)NC(=O)NC(=O)NC(=O)CI — 220-fold higher, 17300 nM
- COc1cc2c(c(OC)c1OC)-c1ccc(OC)c(=O)cc1[C@@H](NC(=O)c1ccccc1)CC2 — lower, < 3 nM
- COc1ccc(Cn2cc3c(c2-c2ccccc2)CC(C)(C)c2cnoc2-3)cc1 — 36-fold higher, 2910 nM
- CN(C)C(=O)c1cc2cnc(Nc3ccc(-c4csc5c(=S)cc(N6CCOCC6)oc45)cc3)nc2n1C1CCCC1 — 12-fold higher, 932 nM
- COC1=CC(=O)c2nc(-c3cccc(C)n3)[nH]c2C1=O — 440-fold higher, 35600 nM

Point of comparison: `COC(=O)[C@@H](C)CNS(=O)(=O)N(c1cc(C(F)(F)F)cc(C(F)(F)F)c1)C1CCN(Cc2ccc(F)cc2)CC1`, TGI 11.7 µM. Against it:
- C=C1C(=O)O[C@@H]2/C=C(\C)CC/C=C(/COC(C)=O)C[C@@H](OC(C)=O)[C@@H]12 — 2.6-fold higher, 30.2 µM
- COC(=O)[C@H](C)NC(=O)NC(=O)NC(=O)CI — 2.9-fold higher, 33.6 µM
- CN1C/C=C\CCOc2cccc(c2)-c2ccnc(n2)Nc2cccc(c2)C1 — 19-fold lower, 0.63 µM
- Oc1ccccc1C(Sc1nc2ccccc2s1)Sc1nc2ccccc2s1 — higher, > 100 µM
- COc1ccc(Cn2cc3c(c2-c2ccccc2)CC(C)(C)c2cnoc2-3)cc1 — higher, > 100 µM
- Oc1cccnc1CN1CCCCC1 — higher, > 100 µM
- CN(C)C(=O)c1cc2cnc(Nc3ccc(-c4csc5c(=S)cc(N6CCOCC6)oc45)cc3)nc2n1C1CCCC1 — higher, > 50 µM
- COC1=CC(=O)c2nc(-c3cccc(C)n3)[nH]c2C1=O — higher, > 100 µM

What follows are compounds tested on SN12C renal (assay: inhibition of tumour cell growth, NCI panel, 48 h).

Point of comparison: `COC(=O)[C@H](C)NC(=O)NC(=O)NC(=O)CI`, GI50 19.8 µM. Against it:
- COC(=O)[C@@H](C)CNS(=O)(=O)N(c1cc(C(F)(F)F)cc(C(F)(F)F)c1)C1CCN(Cc2ccc(F)cc2)CC1 — 4.2-fold lower, 4.69 µM
- COc1cc2c(c(OC)c1OC)-c1ccc(OC)c(=O)cc1[C@@H](NC(=O)c1ccccc1)CC2 — lower, < 0.003 µM
- CN1C/C=C\CCOc2cccc(c2)-c2ccnc(n2)Nc2cccc(c2)C1 — 360-fold lower, 0.0556 µM
- COc1ccc(Cn2cc3c(c2-c2ccccc2)CC(C)(C)c2cnoc2-3)cc1 — 4.4-fold lower, 4.46 µM
- CN(C)C(=O)c1cc2cnc(Nc3ccc(-c4csc5c(=S)cc(N6CCOCC6)oc45)cc3)nc2n1C1CCCC1 — 60-fold lower, 0.33 µM
- COC1=CC(=O)c2nc(-c3cccc(C)n3)[nH]c2C1=O — 1.7-fold higher, 32.9 µM

Point of comparison: `CN1C/C=C\CCOc2cccc(c2)-c2ccnc(n2)Nc2cccc(c2)C1`, TGI 1.45 µM. Against it:
- COC(=O)[C@@H](C)CNS(=O)(=O)N(c1cc(C(F)(F)F)cc(C(F)(F)F)c1)C1CCN(Cc2ccc(F)cc2)CC1 — 13-fold higher, 18.5 µM
- C=C1C(=O)O[C@@H]2/C=C(\C)CC/C=C(/COC(C)=O)C[C@@H](OC(C)=O)[C@@H]12 — 17-fold higher, 24.9 µM
- COC(=O)[C@H](C)NC(=O)NC(=O)NC(=O)CI — 27-fold higher, 39.3 µM
- Oc1ccccc1C(Sc1nc2ccccc2s1)Sc1nc2ccccc2s1 — higher, > 100 µM
- COc1ccc(Cn2cc3c(c2-c2ccccc2)CC(C)(C)c2cnoc2-3)cc1 — higher, > 100 µM
- Oc1cccnc1CN1CCCCC1 — higher, > 100 µM
- CN(C)C(=O)c1cc2cnc(Nc3ccc(-c4csc5c(=S)cc(N6CCOCC6)oc45)cc3)nc2n1C1CCCC1 — higher, > 50 µM
- COC1=CC(=O)c2nc(-c3cccc(C)n3)[nH]c2C1=O — higher, > 100 µM

For `COc1cc2c(c(OC)c1OC)-c1ccc(OC)c(=O)cc1[C@@H](NC(=O)c1ccccc1)CC2`, the TGI was 30 µM and > 81.5 µM.
